{
  "source": "patent US11576913B2",
  "about": "(priority 2018, dated 2023)",
  "test_system": "healthy, non-dependent, recreational sedative users",
  "test": "Human abuse potential study, Drug Liking VAS",
  "assay_type": "in vivo",
  "details": "for Drug Liking VAS - EMAX LSMean: N = 50, 100 point bipolar scale",
  "experimental": "This study was designed as a randomized, single-dose, double-blinded, double dummy, crossover study. The study population was healthy, nondependent recreational polydrug users with a history of Central Nervous System (CNS) depressant use.\nSubjects were screened no more than 28 days before check-in of period 1. Study drug was administered in each period according to the study randomization schedule. During Qualification, there was a minimum 24 hour washout period between each study drug administration. During the Treatment phase, there was a minimum 48-hour washout period between each study drug administration. Subjects were confined to the unit the day prior to, and for at least approximately 24 hours following, study drug administration during each period. If subjects were discharged between treatment periods, subjects returned to the unit the day prior to dosing.\nThe Qualification Phase was designed to ensure that polydrug abusing subjects with self-reported recreational CNS depressant/sedative drug experience were able to tolerate and discriminate between orally administered triazolam tablets and placebo as well as to report positive subjective effects of the drug in a controlled laboratory setting. This phase was also used to exclude “placebo responders”, i.e., subjects who report subjective effects of placebo. This phase also helped familiarize subjects with, and trained them in the use of, various scales and questionnaires that measure subjective effects.\nThe comparators in an abuse potential study are typically controlled substances from the same pharmacologic class as the investigational drug. However, Compound (1C) is a novel drug class for which no controlled substances/drugs of abuse are available for comparison. […] There was no evidence of other effects of interest to abusers, such as perceptual disturbances or stimulation. […] Placebo control was used to establish the frequency and magnitude of changes in clinical endpoints that may occur in the absence of active treatment as well as to minimize subject and investigator bias.\nIn all of the study phases, treatments were blinded to the greatest extent possible to reduce potential bias during data collection and evaluation of clinical endpoints. Because study subjects were recreational drug users and familiar with the effects of the drug substances being studied, the double-dummy technique was be used in the Treatment Phase to maintain blinding. Subjects received tablets orally in each treatment period. Placebo was matched in size and shape to each of the tablet types, and a method to blind subjects will be employed.\nFor each phase, subjects received treatments according to the randomization schema. During the Treatment Phase, subjects were be randomized to 1 of sequences in a 6×6 Williams square crossover design.\nCompound (1C) was administered orally in an immediate release tablet comprising the pharmaceutically acceptable excipients croscarmellose sodium (FMC Health and Nutrition, Philadelphia, Pa.), hydroxypropylcellulose (Ashland Inc., Covington, Ky.), microcrystalline cellulose (Dupont, Chicago, Ill.), mannitol (SPI Pharma, Wilmington, Del.), magnesium stearate (PlusPharma Inc., Vista, Calif.), and sodium lauryl sulfate (BASF Corp, Upper St. Clair, Pa.). […] Placebo tablets matching the Compound (1C) tablets were orally administered in the same way. The placebo tablets comprised the above-described pharmaceutically acceptable excipients but with no Compound (1C). Triazolam was administered at a dose of 0.5 or 1 mg. Trial endpoints are provided below.\nPeak Maximum Effect (Emax) for Drug Liking (“at this moment”) visual analog scale (“VAS”), was measured by study participants providing a score on a 100 point bipolar scale with 100 as strong liking, 50 as the neutral point of neither liking nor disliking, and 0 as strong disliking. […]",
  "note": "Entries after “also recorded” stand apart in the source; their conditions may differ.",
  "data": [
    {"smiles": "O=C(O)c1nc2ccccc2n([C@H]2C[C@H]3CCC[C@@H](C2)N3C2CC3CCCC(C3)C2)c1=O", "note": "(stereo partly drawn) [Compound (1C)]", "values": [
      {"measurement": "Drug Liking VAS - EMAX Diff from Placebo LSMean", "setting": "1 mg", "result": 3.0, "unit": "points"},
      {"measurement": "Drug liking compared with Triazolam 0.5 and 1 mg", "setting": "1 mg", "result": "statistically smaller; also recorded: statistically less; also recorded: (1C) 1 mg was significantly lower than"},
      {"measurement": "Drug liking compared with placebo (words)", "setting": "1 mg", "result": "not significantly greater than placebo; also recorded: placebo was similar to placebo (upper bound"},
      {"measurement": "Drug Liking VAS - EMAX LSMean", "setting": "1 mg single oral dose", "result": 58.1},
      {"measurement": "Drug Liking VAS - EMAX Diff from Placebo LSMean", "setting": "6 mg", "result": 17.7, "unit": "points"},
      {"measurement": "Drug liking compared with Triazolam 0.5 and 1 mg", "setting": "6 mg", "result": "not statistically different"},
      {"measurement": "Drug liking compared with placebo (words)", "setting": "6 mg", "result": "greater drug liking than placebo; also recorded: significantly greater"},
      {"measurement": "Drug Liking VAS - EMAX LSMean", "setting": "6 mg single oral dose", "result": 72.82},
      {"measurement": "Drug Liking VAS - EMAX Diff from Placebo LSMean", "setting": "10 mg", "result": 21.2, "unit": "points"},
      {"measurement": "Drug liking compared with Triazolam 0.5 and 1 mg", "setting": "10 mg", "result": "not statistically different"},
      {"measurement": "Drug liking compared with placebo (words)", "setting": "10 mg", "result": "greater drug liking than placebo; also recorded: significantly greater"},
      {"measurement": "Drug Liking VAS - EMAX LSMean", "setting": "10 mg single oral dose", "result": 76.4},
      {"measurement": "Drug Liking VAS - EMAX, Triazolam 0.5 mg - Cmpd. (1C) LSMean", "setting": "Cmpd. (1C) 1 mg", "result": 17.4},
      {"measurement": "Drug Liking VAS - EMAX, Triazolam 1 mg - Cmpd. (1C) LSMean", "setting": "Cmpd. (1C) 1 mg", "result": 20.5},
      {"measurement": "Drug Liking VAS - EMAX, Triazolam 0.5 mg - Cmpd. (1C) LSMean", "setting": "Cmpd. (1C) 6 mg", "result": 2.7},
      {"measurement": "Drug Liking VAS - EMAX, Triazolam 1 mg - Cmpd. (1C) LSMean", "setting": "Cmpd. (1C) 6 mg", "result": 5.8},
      {"measurement": "Drug Liking VAS - EMAX, Triazolam 0.5 mg - Cmpd. (1C) LSMean", "setting": "Cmpd. (1C) 10 mg", "result": "−0.8"},
      {"measurement": "Drug Liking VAS - EMAX, Triazolam 1 mg - Cmpd. (1C) LSMean", "setting": "Cmpd. (1C) 10 mg", "result": 2.3}
    ]}
  ]
}
